{"source": "patent US20050165232A1", "about": "“Phenyl substituted imidaopyridines and phenyl substituted benzimidazoles” (priority 2002, published 2005)", "key": {"adenosine A3 receptor": {"molecular_target": "T1, adenosine A3 receptor (Rattus norvegicus, UniProt P28647)", "T1 construct": "expressed in transfected cells; host or cells: EBNA cells", "T1 sequence (P28647 1-320)": "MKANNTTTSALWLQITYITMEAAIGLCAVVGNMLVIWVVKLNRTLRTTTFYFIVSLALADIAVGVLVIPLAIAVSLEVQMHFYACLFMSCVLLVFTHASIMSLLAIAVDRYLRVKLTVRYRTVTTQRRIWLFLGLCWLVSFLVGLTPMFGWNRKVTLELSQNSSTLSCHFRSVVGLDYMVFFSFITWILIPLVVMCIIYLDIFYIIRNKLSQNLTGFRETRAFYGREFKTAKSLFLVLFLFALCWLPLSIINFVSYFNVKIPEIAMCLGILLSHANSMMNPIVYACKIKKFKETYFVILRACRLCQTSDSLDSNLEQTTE", "assay": "Rat adenosine A3 receptor binding assay", "settings": "radioligand 125I AB-MECA, rat recombinant EBNA cells", "protocol": "Adenosine A3 radioligand binding was performed as follows. Rat recombinant EBNA cells were used with 1 nM ^125I AB-MECA as ligand."}, "adenosine A1": {"molecular_target": "T2, adenosine A1 (Rattus norvegicus, UniProt P25099)", "T2 construct": "Wistar rat (ca. 275 g) vas deferens were used; from tissue; host or cells: Wistar rat vas deferens", "T2 sequence (P25099 1-326)": "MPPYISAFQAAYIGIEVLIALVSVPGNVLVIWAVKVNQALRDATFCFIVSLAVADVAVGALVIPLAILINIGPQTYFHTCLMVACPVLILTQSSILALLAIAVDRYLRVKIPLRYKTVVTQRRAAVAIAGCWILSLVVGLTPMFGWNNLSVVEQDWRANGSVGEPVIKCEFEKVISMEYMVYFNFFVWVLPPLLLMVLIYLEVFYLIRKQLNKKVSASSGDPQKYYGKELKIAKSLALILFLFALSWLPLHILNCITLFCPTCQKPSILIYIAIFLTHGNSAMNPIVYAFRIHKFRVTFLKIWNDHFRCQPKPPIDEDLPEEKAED", "assay": "Rat adenosine A1 tissue assay (vas deferens)", "design": "species or system Wistar rat", "protocol": "An adenosine A1 tissue assay was performed as follows to determine antagonist versus agonist functional activity. […] The vehicle used was 0.1% DMSO, the incubation buffer used was Krebs at pH 7.4, and the incubation time was 5 min at 32° C. The administration volume was 10 μL, the bath volume was 10 mL, and the time of assessment was 5 min using an isometric (gram changes) quantitation method. The criteria for functional agonism was a ≧50% reduction of neurogenic twitch relative to CHA response. The criteria for functional antagonism was a ≧50% inhibition of CHA-induced relaxation."}}}
{"smiles": "CNC(=O)[C@H]1O[C@@H](n2cnc3c(NCc4ccc(N)cc4)ncnc32)[C@H](O)[C@@H]1O", "note": "[AB-MECA]", "values": [{"measurement": "Kd", "setting": "adenosine A3 receptor", "value": 1.3, "unit": "nM"}]}
{"smiles": "OC[C@H]1O[C@@H](n2cnc3c(NC4CCCCC4)ncnc32)[C@H](O)[C@@H]1O", "note": "[CHA, N6-(cyclohexyl)adenosine]", "values": [{"measurement": "agonist reference response", "setting": "adenosine A1; 0.3 μM", "value": 100, "unit": "%"}]}
{"smiles": "CCCn1c(=O)c2[nH]c(C3CCCC3)nc2n(CCC)c1=O", "note": "[DPCPX, 8-cyclopentyl-1,3-dipropylxanthine]", "values": [{"measurement": "antagonist reference response", "setting": "adenosine A1; 10 nM", "value": 87, "unit": "%"}]}
